Patent US11844800B2, “Methods and compositions for predicting and preventing relapse of acute lymphoblastic leukemia” (Massachusetts Institute of Technology, priority 2019, dated 2023)

Columns and labels:
[1] = tested on: B-cell ALL leukemic cells in bone marrow; assay: Bone marrow involvement at MRD in B-cell ALL PDX mice after mono- or combination therapy; type: in vivo; conditions: treated for 28 days
Protocol: Mice are treated with ponatinib alone, ponatinib in combination with QNZ (a TNF-alpha inhibitor), ponatinib in combination with fostamatinib (a proximal pre-BCR pathway inhibitor), ponatinib in combination with ibrutinib (a proximal pre-BCR pathway inhibitor), ponatinib in combination with duvelisib (a distal pre-BCR inhibitor), or ponatinib in combination with losmapimod (a p38 MAPK inhibitor) for 28 days. Bone marrow aspirates are obtained, and leukemic cells are isolated using conventional Ficoll centrifugation and FACS sorting methods. The leukemic cells are counted as bone marrow involvement at MRD, and it is compared to that before treatment.

[2] = tested on: BCR-ABL mutant B-cell ALL; type: in vivo, mice; conditions: 13 models, n=88 animals

SMILES: Cc1ccc(C(=O)Nc2ccc(CN3CCN(C)CC3)c(C(F)(F)F)c2)cc1C#Cc1cnc2cccnn12 [ponatinib]
- bone marrow involvement at MRD [1]: 8%

SMILES: O=C(Nc1ccc(OC(F)(F)Cl)cc1)c1cnc(N2CC[C@@H](O)C2)c(-c2cc[nH]n2)c1 [ABL001, asciminib]
- Event free survival (remission/relapse, in words) [2]: significant earlier relapse
